Measurements reported in ChEMBL document CHEMBL3860050, “Triterpenoids from Momordica balsamina: Reversal of ABCB1-mediated multidrug resistance” (Bioorg Med Chem, 2016).

Assays:
[1] = target: T1, ATP-dependent translocase ABCB1 (Homo sapiens, UniProt P08183); test: Inhibition of MDR1-mediated efflux-pump activity in mouse L5178Y cells expressing human MDR1 assessed as mean fluorescence intensity at 2 uM preincubated for 10 mins followed by rhodamine-123 addition measured after 20 mins by flow cytometry (reference value: 7.1 to 18.6); type: cell-based
[2] = target: T1, ATP-dependent translocase ABCB1; test: Inhibition of MDR1-mediated efflux-pump activity in mouse L5178Y cells expressing human MDR1 assessed as forward scattered light at 20 uM preincubated for 10 mins followed by rhodamine-123 addition measured after 20 mins by flow cytometry (reference value: 455.7 to 509.9); type: cell-based
[3] = target: T1, ATP-dependent translocase ABCB1; test: Inhibition of MDR1-mediated efflux-pump activity in mouse L5178Y cells expressing human MDR1 assessed as fluorescence activity ratio at 20 uM preincubated for 10 mins followed by rhodamine-123 addition measured after 20 mins by flow cytometry; type: cell-based
[4] = Antiproliferative activity against mouse L5178Y cells measured after 72 hrs by MTT assay; type: functional, cell-based
[5] = target: T1, ATP-dependent translocase ABCB1; test: Inhibition of MDR1 in mouse L5178Y cells expressing human MDR1 assessed as doxorubicin-induced antiproliferative activity by measuring combination index at 5.7:1 compound to doxorubicin ratio measured after 48 hrs by MTT assay; type: cell-based
[6] = Antiproliferative activity against mouse L5178Y cells expressing human MDR1 measured after 72 hrs by MTT assay; type: functional, cell-based
[7] = target: T1, ATP-dependent translocase ABCB1; test: Inhibition of MDR1-mediated efflux-pump activity in mouse L5178Y cells expressing human MDR1 assessed as mean fluorescence intensity at 20 uM preincubated for 10 mins followed by rhodamine-123 addition measured after 20 mins by flow cytometry (reference value: 7.1 to 18.6); type: cell-based
[8] = target: T1, ATP-dependent translocase ABCB1; test: Inhibition of MDR1-mediated efflux-pump activity in mouse L5178Y cells expressing human MDR1 assessed as fluorescence activity ratio at 2 uM preincubated for 10 mins followed by rhodamine-123 addition measured after 20 mins by flow cytometry; type: cell-based
[9] = target: T1, ATP-dependent translocase ABCB1; test: Inhibition of MDR1-mediated efflux-pump activity in mouse L5178Y cells expressing human MDR1 assessed as side scattered light at 20 uM preincubated for 10 mins followed by rhodamine-123 addition measured after 20 mins by flow cytometry (reference value: 194.6 to 286.4); type: cell-based
[10] = target: T1, ATP-dependent translocase ABCB1; test: Inhibition of MDR1-mediated efflux-pump activity in mouse L5178Y cells expressing human MDR1 assessed as forward scattered light at 2 uM preincubated for 10 mins followed by rhodamine-123 addition measured after 20 mins by flow cytometry (reference value: 455.7 to 509.9); type: cell-based
[11] = target: T1, ATP-dependent translocase ABCB1; test: Inhibition of MDR1-mediated efflux-pump activity in mouse L5178Y cells expressing human MDR1 assessed as side scattered light at 2 uM preincubated for 10 mins followed by rhodamine-123 addition measured after 20 mins by flow cytometry (reference value: 194.6 to 286.4); type: cell-based
[12] = target: T1, ATP-dependent translocase ABCB1; test: Inhibition of MDR1 in mouse L5178Y cells expressing human MDR1 assessed as doxorubicin-induced antiproliferative activity by measuring combination index at 1.4:1 compound to doxorubicin ratio measured after 48 hrs by MTT assay; type: cell-based

T1 sequence (P08183 whole entry): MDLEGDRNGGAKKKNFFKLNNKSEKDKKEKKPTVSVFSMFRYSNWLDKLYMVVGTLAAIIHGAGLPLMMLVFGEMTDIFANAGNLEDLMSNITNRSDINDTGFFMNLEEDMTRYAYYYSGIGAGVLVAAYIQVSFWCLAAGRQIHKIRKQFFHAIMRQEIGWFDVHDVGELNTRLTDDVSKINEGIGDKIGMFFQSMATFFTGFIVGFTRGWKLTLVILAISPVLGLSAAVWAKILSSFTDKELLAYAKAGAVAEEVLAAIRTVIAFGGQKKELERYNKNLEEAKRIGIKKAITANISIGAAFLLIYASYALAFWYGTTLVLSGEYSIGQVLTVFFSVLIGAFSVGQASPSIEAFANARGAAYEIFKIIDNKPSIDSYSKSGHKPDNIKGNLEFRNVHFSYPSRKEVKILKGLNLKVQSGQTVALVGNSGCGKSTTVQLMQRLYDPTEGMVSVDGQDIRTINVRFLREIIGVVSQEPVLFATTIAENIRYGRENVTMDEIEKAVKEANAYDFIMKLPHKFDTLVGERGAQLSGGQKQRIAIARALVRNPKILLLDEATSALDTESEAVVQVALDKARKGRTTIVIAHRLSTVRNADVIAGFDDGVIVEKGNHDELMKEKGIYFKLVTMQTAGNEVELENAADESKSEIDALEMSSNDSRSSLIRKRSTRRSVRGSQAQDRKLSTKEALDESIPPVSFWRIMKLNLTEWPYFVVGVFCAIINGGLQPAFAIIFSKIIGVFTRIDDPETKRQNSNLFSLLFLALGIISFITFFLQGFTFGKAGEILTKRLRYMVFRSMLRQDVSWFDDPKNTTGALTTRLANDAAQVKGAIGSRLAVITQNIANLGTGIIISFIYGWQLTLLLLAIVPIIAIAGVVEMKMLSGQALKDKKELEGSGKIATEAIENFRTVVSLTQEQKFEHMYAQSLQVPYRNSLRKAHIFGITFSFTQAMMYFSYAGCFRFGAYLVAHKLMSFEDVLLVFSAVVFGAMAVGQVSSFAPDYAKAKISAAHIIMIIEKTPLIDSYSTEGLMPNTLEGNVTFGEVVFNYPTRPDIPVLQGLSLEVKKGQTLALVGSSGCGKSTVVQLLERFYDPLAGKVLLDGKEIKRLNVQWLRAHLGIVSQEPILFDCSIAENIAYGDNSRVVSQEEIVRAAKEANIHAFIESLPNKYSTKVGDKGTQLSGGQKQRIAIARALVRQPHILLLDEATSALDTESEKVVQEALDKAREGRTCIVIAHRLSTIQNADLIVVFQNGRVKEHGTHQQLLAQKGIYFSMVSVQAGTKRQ

Structure (SMILES)	Flu intensity [1]	Activity [2]	Ratio [3]	IC50 [4] [µM]	CI [5]	IC50 [6] [µM]	Flu intensity [7]	Ratio [8]	Activity [9]	Activity [10]	Activity [11]	CI [12]
CO[C@H]1C=C2[C@@H](CC[C@H](O)C2(C)C)[C@]2(C)C[C@@H](O)[C@]3(C)[C@@H]([C@H](C)C[C@@H](O)C=C(C)C)CC[C@@]3(C)[C@H]12 [CUCURBALSAMINOL C]	31.6	564.3	19.8	19.5	0.416	34.6	202.8	3.1	237.6	568.5	241.8	–
CO[C@H]1C=C2[C@@H](CC[C@H](O)C2(C)C)[C@]2(C)CC[C@]3(C)[C@@H]([C@H](C)C[C@H](C=C(C)C)O[C@@H]4O[C@H](CO)[C@@H](O)[C@H](O)[C@H]4O)CC[C@@]3(C)[C@H]12	12.4	457.3	49.1	3.5	0.956	32.8	643.1	1	269.2	446.8	266.8	–
C[C@H](C/C=C/C(C)(C)O)[C@H]1CC[C@@]2(C)[C@@H]3[C@@H](O)C=C4[C@@H](CC[C@H](O)C4(C)C)[C@]3(C)CC[C@]12C	73.1	395.2	36	18.7	0.71	27.4	368.4	7.1	243.9	570.5	249	–
CC(C)=C[C@H](O)C[C@@H](C)[C@H]1CC[C@@]2(C)[C@@H]3C(=O)C=C4[C@@H](CC[C@H](O)C4(C)C)[C@]3(C)CC[C@]12C [BALSAMINOL E]	20.8	593	64.8	41.3	0.721	55.2	663.1	2	234.5	582.7	243.4	–
CC(C)=CC(=O)C[C@@H](C)[C@H]1CC[C@@]2(C)[C@@H]3C(=O)C=C4[C@@H](CC[C@H](O)[C@]4(C)CO)[C@]3(C)CC[C@]12C [BALSAMINOL C]	22.3	502.2	198.9	19	0.268	42.6	1537.8	2.9	195.7	502.3	205.4	–
CO[C@H]1C=C2[C@@H](CC[C@H](O)C2(C)C)[C@]2(C)C[C@@H](O)[C@]3(C)[C@@H]([C@H](C)C/C=C/C(C)(C)O)CC[C@@]3(C)[C@H]12	27.2	585	38.2	44.4	–	46.3	391.6	2.7	235.8	568.6	249.6	0.393
CC(C)=C[C@H](O)C[C@@H](C)[C@H]1CC[C@@]2(C)[C@@H]3C=C[C@@]45OC[C@]3(CC[C@]12C)[C@@H]4CC[C@H](O)C5(C)C [KARAVILAGENIN E]	38.4	474	72.6	21.3	0.437	45.2	743.8	3.8	242	568.8	234.2	–
CC(=O)O[C@H]1C=C2[C@@H](CC[C@H](OC(C)=O)C2(C)C)[C@]2(C)CC[C@]3(C)[C@@H]([C@H](C)C[C@H](C=C(C)C)OC(C)=O)CC[C@@]3(C)[C@H]12 [TRIACETYLBALSAMINOL F]	20	533.5	15	> 133	–	> 133	100.6	3	179.9	541.9	182.1	–
CO[C@H]1C=C2[C@@H](CC[C@H](OC(=O)CCC(=O)O)C2(C)C)[C@]2(C)CC[C@]3(C)[C@@H]([C@H](C)C[C@H](C=C(C)C)OC(=O)CCC(=O)O)CC[C@@]3(C)[C@H]12	8.2	546.7	5.9	16.9	–	46.9	39.5	1.3	187	545.8	184.6	–
CCCC(=O)O[C@H]1CC[C@@H]2C(=C[C@H](OC)[C@@H]3[C@@]2(C)CC[C@]2(C)[C@@H]([C@H](C)C[C@H](C=C(C)C)OC(=O)CCC)CC[C@@]32C)C1(C)C [KARAVOATE F]	10.8	541	1.6	93.2	–	> 133	12.3	1.4	218.7	542.6	218.3	–
CO[C@H]1C=C2[C@@H](CC[C@H](OC(=O)c3ccc([N+](=O)[O-])cc3)C2(C)C)[C@]2(C)CC[C@]3(C)[C@@H]([C@H](C)C[C@H](C=C(C)C)OC(=O)c4ccc([N+](=O)[O-])cc4)CC[C@@]3(C)[C@H]12 [KARAVOATE J]	9.5	537.3	2.1	59.4	–	87.9	14.3	1.4	184.1	543.4	186.3	–
CO[C@H]1C=C2[C@@H](CC[C@H](OC(=O)c3ccccc3)C2(C)C)[C@]2(C)CC[C@]3(C)[C@@H]([C@H](C)C/C=C/C(C)(C)O)CC[C@@]3(C)[C@H]12	17.9	444.8	7.8	108	–	130	140	1	235.1	454.2	233.1	–
CC(C)=C[C@H](O)C[C@@H](C)[C@H]1CC[C@@]2(C)[C@@H]3[C@@H](O[C@H]4O[C@@H](CO)[C@H](O)[C@H](O)[C@@H]4O)C=C4[C@@H](CC[C@H](O)C4(C)C)[C@]3(C)CC[C@]12C	11.5	457.9	37.2	18.7	–	42.6	487.1	0.9	277.2	443.8	267.4	–
CO[C@H]1C=C2[C@@H](CC[C@H](O)C2(C)C)[C@]2(C)CC[C@]3(C)[C@@H]([C@H](C)C[C@H](C=C(C)C)OC(=O)/C=C/c4ccccc4)CC[C@@]3(C)[C@H]12 [KARAVOATE O]	10	505.9	1.4	> 133	–	90	11	1.3	206.9	496.9	197.9	–
